# Test results: a melting point compilation (Tetko et al.; mined from patent text by program, amines drawn as free bases though some values may be those of a salt)
row,melting point,Compound
1,142 to 145 °C,CCOC(=O)c1cn(NCC(=O)OC)c2cc3c(cc2c1=O)OCO3
2,251 to 254 °C,Cc1ccc2nc(N3CCN(c4c(Cl)cncc4Cl)CC3)[nH]c2c1
3,> 300 °C,CCOC(=O)c1ccc2c(c1)C(=O)CC(c1ccccc1)=N2
4,291 to 292 °C,NC(=O)c1cc(N)c(Oc2ccccc2)c(S(N)(=O)=O)c1
5,129 to 132 °C,COc1cnc(Cl)c(C(N)=O)c1
6,139 to 140 °C,N#CC(O)C1(F)CCN(C(=O)c2ccc(F)c(Cl)c2)CC1 (configuration not stated)
7,193 to 194 °C,CN1CCN(c2ccccc2C=CC(=O)NCc2ccc(Cl)cc2)CC1
8,110 to 112 °C,COC(=O)CS(=O)(=O)N1CC=C(c2ccc(Br)c(C)c2)CC1
9,148 to 150 °C,CS(=O)(=O)c1ccc(-c2oncc2C(=O)C2CC2)cc1Cl
10,159 to 161 °C,CC(C#Cc1ccc(Cl)cc1)N(O)C(N)=O (configuration not stated)
11,132 to 134 °C,COc1cc(N)c(C(=O)c2ccnc(Cl)c2)cc1OC
12,122 to 125 °C,CC(C)[C@H](NC(=O)OCc1ccccc1)C(=O)N[C@@H](Cc1ccccc1)C(=O)CSCc1ccco1
13,73 °C,CCOC(=O)COc1ccc(C2OCCCO2)cc1NC(=O)c1ccc(OCCCCc2ccccc2)cc1
14,> 330 °C,CNc1nc2cccc(C(=O)O)c2s1
15,102 to 104 °C,CC1CCCN(S(=O)(=O)c2ccc(OC(C)C)c(C(=O)O)c2)C1 (configuration not stated)

# Continued, compound first:
row,Compound,melting point
1,CCCO[C@@H]1[C@@H](OC)[C@H](C)O[C@@H](ON=Cc2ccc(/C=C/c3ccc(OC(F)(F)F)cc3)cc2)[C@@H]1OC,124 to 132 °C
2,Fc1cc(OCc2ccccc2)cnc1Cl,48 to 52 °C
3,NS(=O)(=O)c1ccc(-c2c(-c3ccccc3)noc2COCC(F)(F)CO)cc1,93 to 94 °C
4,Cn1c(=O)n(SC(Cl)(Cl)Cl)n(-c2ccccc2)c1=O,214 °C
5,N#CC(C#N)=C(O)c1ccc(Oc2ccccc2)cc1,160 to 162 °C
6,O=[N+]([O-])c1c(O)nc(N2CCSCC2)nc1O,220 to 223 °C
7,CCOC(=O)C=Cc1ccncc1,64 to 66 °C
8,O=C(O)c1ccc2nc(-c3ccccc3)c(-c3ccccc3)nc2c1,290 to 292 °C
9,CSCCCn1c(C)nc2c(N)nc3ccccc3c21,199 to 202 °C
10,CC1(C)Cc2cc([N+](=O)[O-])cc(OCC3CO3)c2O1 (configuration not stated),108 °C
11,COc1ccc(/C=C/C(=O)C2C(=O)CC(c3ccc(OC)cc3)C([N+](=O)[O-])C2c2ccccc2)cc1 (configuration not stated),164 to 165 °C
12,CCOCCOC(=O)C1=C(C)NC(COC(N)=O)=C(C(=O)OCC)C1c1cccc([N+](=O)[O-])c1 (configuration not stated),135 to 138 °C
13,COc1c(C=O)c2cc(Cl)c(Cl)cc2n1C1OC(CO)C(O)C1O (configuration not stated),198 to 199 °C
14,OCCc1c[nH]c2ccc(O)cc12,98 to 102 °C
15,COc1ccc2c(c1)C(=O)C1CCCCN1C2 (configuration not stated),117 to 119 °C
16,C=CCCNCc1nnc2n1-c1ccc(Cl)cc1C(c1ccccc1)=NC2,157 to 160 °C
17,Cn1nc(-c2cc(Cl)c(F)cc2F)c(Cl)c1C(F)(F)F,50 to 51 °C
18,CCCCCC(C)C(C)c1cc(O)c2c(c1)OC(C)(C)C1=C2CN(CC(N)=O)CC1 (configuration not stated),165 to 168 °C
19,OC[C@@H]1CC=CC[C@@H]1CO,33 to 35 °C
20,Cc1noc(-c2ccc(-c3cscn3)cc2)c1-c1ccc(S(N)(=O)=O)cc1,236 °C
21,Cn1c(COc2ccc(CC3SC(=O)NC3=O)cc2)nc2ccc(Sc3ccccc3)nc21 (configuration not stated),166 to 168 °C
22,CN1CCN(c2ccc(C3CCC4(CCC4c4ccccc4)C(=O)N3c3ccccc3)cc2)CC1 (configuration not stated),166 to 168 °C
23,O=c1c(CCCO)c(O)c2cccnc2n1-c1ccccc1,218 to 220 °C
24,CC(C)(C)OC(=O)N(C(=O)OC(C)(C)C)c1sc(-c2cncc(F)c2)nc1F,143 °C
25,C=C(C)C(=O)NC(=O)Nc1ccccc1,165 to 166 °C
26,CCSc1nnc(-c2ccc(OC)cc2)c(-c2ccc(OC)cc2)n1,118 to 120 °C
27,N#CCNC(=O)c1cccc2ccccc12,160 to 163 °C
